Bounds are passed on as bounds.

This test concerns the target T1, purified recombinantly expressed human SSAO (Homo sapiens, UniProt Q16853).
T1 construct: made in house
T1 sequence (Q16853 1-763): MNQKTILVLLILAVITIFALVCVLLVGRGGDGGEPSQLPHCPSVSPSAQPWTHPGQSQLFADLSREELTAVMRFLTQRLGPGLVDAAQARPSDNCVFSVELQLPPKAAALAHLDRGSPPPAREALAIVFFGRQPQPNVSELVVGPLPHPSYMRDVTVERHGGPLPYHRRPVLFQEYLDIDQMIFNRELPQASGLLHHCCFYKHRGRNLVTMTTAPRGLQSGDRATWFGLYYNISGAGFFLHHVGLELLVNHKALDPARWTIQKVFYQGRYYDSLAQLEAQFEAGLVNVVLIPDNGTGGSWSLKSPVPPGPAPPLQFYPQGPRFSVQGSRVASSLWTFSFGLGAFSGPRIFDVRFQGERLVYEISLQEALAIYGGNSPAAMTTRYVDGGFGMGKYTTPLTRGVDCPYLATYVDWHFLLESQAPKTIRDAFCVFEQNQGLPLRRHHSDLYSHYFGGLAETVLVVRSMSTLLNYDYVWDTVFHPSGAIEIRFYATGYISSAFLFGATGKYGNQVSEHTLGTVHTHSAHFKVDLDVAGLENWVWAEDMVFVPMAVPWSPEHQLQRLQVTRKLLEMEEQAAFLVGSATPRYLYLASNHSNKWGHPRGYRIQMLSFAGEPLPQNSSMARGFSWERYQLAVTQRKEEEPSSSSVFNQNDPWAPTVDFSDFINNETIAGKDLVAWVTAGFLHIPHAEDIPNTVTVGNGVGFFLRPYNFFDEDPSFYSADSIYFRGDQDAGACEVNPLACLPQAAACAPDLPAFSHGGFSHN
Nature of the test: SSAO enzyme inhibition assay (benzylamine substrate; hydrogen peroxide/HRP-coupled or 14C aldehyde detection). Conditions: SSAO inhibitory activity, RT. Type of test: biochemical. As for the experimental part: All primary assays were performed at RT. with purified recombinantly expressed human SSAO. Enzyme was prepared essentially as described in Öhman et al. (Protein Expression and Purification 46 (2006) 321-331). In addition, secondary- and selectivity assays were performed using SSAO prepared from various tissues or purified rat recombinant SSAO. The enzyme activity was assayed with benzylamine as substrate by measuring either benzaldehyde production, using ^14C-labeled substrate, or by utilizing the production of hydrogen peroxide in a horseradish peroxidase (HRP) coupled reaction. Briefly, test compounds were dissolved in dimethyl sulfoxide (DMSO) to a concentration of 10 mM. Dose-response measurements were assayed by either creating 1:10 serial dilutions in DMSO to produce a 7 point curve or by making 1:3 serial dilutions in DMSO to produce 11 point curves.
In a horseradish peroxidase (HRP) coupled reaction, hydrogen peroxide oxidation of 10-acetyl-3,7-dihydroxyphenoxazine produced resorufin, which is a highly fluorescent compound (Zhout and Panchuk-Voloshina. Analytical Biochemistry 253 (1997) 169-174; Amplex® Red Hydrogen Peroxide/peroxidase Assay kit, Invitrogen A22188). Enzyme and compounds in 50 mM sodium phosphate, pH 7.4 were set to pre-incubate in flat-bottomed microtiter plates for approximately 15 min before initiating the reaction by addition of a mixture of HRP, benzylamine and Amplex reagent. Benzylamine concentration was fixed at a concentration corresponding to the Michaelis constant, determined using standard procedures. Fluorescence intensity was then measured at several time points during 1-2 h, exciting at 544 nm and reading the emission at 590 nm. For the human SSAO assay final concentrations of the reagents in the assay wells were: SSAO enzyme 1 ug/ml, benzylamine 100 uM, Amplex reagent 20 uM, HRP 0.1 U/mL and varying concentrations of test compound. The inhibition was measured as % decrease of the signal compared to a control without inhibitor (only diluted DMSO). The background signal from a sample containing no SSAO enzyme was subtracted from all data points. Data was fitted to a four parameter logistic model and IC50 values were calculated using the Graph Pad Prism 4 or XLfit 4 programs.
SSAO activity was assayed using 14C-labeled benzylamine and analysed by measuring radioactive benzaldehyde. In a white 96-well optiplate (Packard), 20 uL of diluted test compound was pre-incubated at room temperature with 20 uL SSAO enzyme for approximately 15 min with continuous agitation. All dilutions were made with PBS. The reaction was initiated by adding 20 uL of the benzylamine substrate solution containing [7-14C] Benzylamine hydrochloride (CFA589, GE Healthcare). The plate was incubated for 1 h as above after which the reaction was stopped by acidification (10 uL 1M aq HCl). Then 90 uL Micro Scint-E solution (Perkin-Elmer) was added to each well and the plate was continuously mixed for 15 min. Phase separation occurred instantly and activity was read in a Topcount scintillation counter (Perkin-Elmer). In the final reaction well, the human recombinant SSAO concentration was 10 ug/ml. In order to optimize sensitivity, the substrate concentration was decreased as compared to the HRP coupled assay in order to get a higher fraction of radioactive product. In the human SSAO assay, benzylamine concentration was 40 uM (0.2 uCi/mL). Data was analysed as above.
As usually defined, the IC50 is the concentration at which inhibition is half-maximal. In the case of `Cc1ccc(-n2c(-c3cnc(NCCOC(C)C)nc3)nc3ccncc32)cc1` [Example 39, 5-[3-(4-Methylphenyl)-3H-imidazo[4,5-c]pyridin-2-yl]-N-[2-(propan-2-yloxy)ethyl] pyrimidin-2-amine], the IC50 is less than 50 nM.
The figure for `CN1CCN(c2ncc(-c3nc4ccncc4n3-c3ccc(F)cc3)cn2)CC1=O` [Example 40, 4-{5-[3-(4-Fluorophenyl)-3H-imidazo[4,5-c]pyridin-2-yl]pyrimidin-2-yl}-1-methylpiperazin-2-one] is 50 to 200 nM; for `Fc1ccc(-n2c(-c3ccc(N4CCOCC4)nc3)nc3ccncc32)c(F)c1` [Example 41, 4-{5-[3-(2,4-Difluorophenyl)-3H-imidazo[4,5-c]pyridin-2-yl]pyridin-2-yl}morpholine] it is less than 50 nM; for `CCOCCNc1ncc(-c2nc3ccncc3n2-c2ccc(F)cc2)cn1` [Example 42, N-(2-Ethoxyethyl)-5-[3-(4-fluorophenyl)-3H-imidazo [4,5-c]pyridin-2-yl]pyrimidin-2-amine] it is 50 to 200 nM.
Consider `CCOCCNc1ncc(-c2nc3ccncc3n2-c2ccc(C)cc2)cn1` [Example 43, N-(2-Ethoxyethyl)-5-[3-(4-methylphenyl)-3H-imidazo [4,5-c]pyridin-2-yl] pyrimidin-2-amine], for which the IC50 was less than 50 nM.
Consider `Clc1ccc(-n2c(-c3cnc[nH]3)nc3ccncc32)cc1` [Example 44, 5-[3-(4-Chlorophenyl)-3H-imidazo[4,5-c]pyridin-2-yl]-1H-imidazole], for which the concentration for half-maximal inhibition (IC50) was in the range of 200 to 1200 nM.
On to `CN1CCN(Cc2cccc(-c3nc4ccncc4n3-c3ccc(Cl)cc3)c2)CC1` [Example 45, 1-({3-[3-(4-Chlorophenyl)-3H-imidazo[4,5-c]pyridin-2-yl]phenyl}methyl)-4-methylpiperazine; formic acid], for which the IC50 is 200 to 1200 nM.
In the case of `Clc1ccc(-n2c(-c3ccc(Cn4ccnc4)cc3)nc3ccncc32)cc1` [Example 48, 1-({4-[3-(4-Chlorophenyl)-3H-imidazo[4,5-c]pyridin-2-yl]phenyl}methyl)-1H-imidazole], the IC50 was less than 50 nM.
`Clc1ccc(-n2c(-c3ccc(CN4CCOCC4)cc3)nc3ccncc32)cc1` [Example 49, 4-({4-[3-(4-Chlorophenyl)-3H-imidazo[4,5-c]pyridin-2-yl]phenyl}methyl)morpholine]: the IC50 is less than 50 nM.
On to `Cc1cc(F)ccc1-n1c(-c2cnc(N3CCOCC3)nc2)nc2ccncc21` [Example 55, 4-{5-[3-(4-Fluoro-2-methylphenyl)-3H-imidazo[4,5-c]pyridin-2-yl]pyrimidin-2-yl}morpholine], for which the half-maximal inhibitory concentration (IC50) was less than 50 nM.
On to `Fc1ccc(-n2c(-c3cnc(N4CCOCC4)nc3)nc3ccncc32)c(Cl)c1` [Example 56, 4-{5-[3-(2-Chloro-4-fluorophenyl)-3H-imidazo[4,5-c]pyridin-2-yl]pyrimidin-2-yl}morpholine], for which the IC50 was 200 to 1200 nM.
Consider `Cc1ccc(-n2c(-c3cnc(N4CCOCC4)nc3)nc3ccncc32)cn1` [Example 58, 4-{5-[3-(6-Methylpyridin-3-yl)-3H-imidazo[4,5-c]pyridin-2-yl]pyrimidin-2-yl}morpholine], for which the IC50 fell in the range of 200 to 1200 nM.
For the compound `Brc1ccc(-n2c(-c3cnc(N4CCOCC4)nc3)nc3ccncc32)cc1` [Example 59, 4-{5-[3-(4-Bromophenyl)-3H-imidazo[4,5-c]pyridin-2-yl]pyrimidin-2-yl}morpholine], the IC50 lay in the range of 50 to 200 nM.
For the compound `Fc1ccccc1-n1c(-c2cnc(N3CCOCC3)nc2)nc2ccncc21` [Example 60, 4-{5-[3-(2-Fluorophenyl)-3H-imidazo[4,5-c]pyridin-2-yl]pyrimidin-2-yl}morpholine], the IC50 was 50 to 200 nM.
In the case of `Fc1ccc(-n2c(-c3ccc(N4CCOCC4)nc3)nc3ccncc32)c(Cl)c1` [Example 61, 4-{5-[3-(2-Chloro-4-fluorophenyl)-3H-imidazo[4,5-c]pyridin-2-yl]pyridin-2-yl}morpholine], the IC50 was less than 50 nM.
With `Cc1cc(F)ccc1-n1c(-c2ccc(N3CCOCC3)nc2)nc2ccncc21` [Example 62, 4-{5-[3-(4-Fluoro-2-methylphenyl)-3H-imidazo[4,5-c]pyridin-2-yl]pyridin-2-yl}morpholine], the IC50 fell in the range of 50 to 200 nM.
The figure for `Oc1ccc(-n2c(-c3ccc(N4CCOCC4)nc3)nc3ccncc32)cc1` [Example 65, 4-{2-[6-(Morpholin-4-yl)pyridin-3-yl]-3H-imidazo[4,5-c]pyridin-3-yl}phenol] is less than 50 nM; for `FC(F)(F)c1ccc(-n2c(-c3ccc(N4CCOCC4)nc3)nc3ccncc32)cc1` [Example 66, 4-(5-{3-[4-(Trifluoromethyl)phenyl]-3H-imidazo[4,5-c]pyridin-2-yl}pyridin-2-yl)morpholine] it is 50 to 200 nM.
As to `Fc1ccccc1-n1c(-c2ccc(N3CCOCC3)nc2)nc2ccncc21` [Example 68, 4-{5-[3-(2-Fluorophenyl)-3H-imidazo[4,5-c]pyridin-2-yl]pyridin-2-yl}morpholine], the IC50 was less than 50 nM.
The same measure for `CN(C)c1ncc(-c2nc3ccncc3n2-c2ccc(Cl)cc2)cn1` [Example 72, 5-[3-(4-Chlorophenyl)-3H-imidazo[4,5-c]pyridin-2-yl]-N,N-dimethylpyrimidin-2-amine]: 200 to 1200 nM; for `Fc1ccc(-n2c(-c3ccnc(N4CCOCC4)c3)nc3ccncc32)cc1` [Example 73, 4-{4-[3-(4-Fluorophenyl)-3H-imidazo[4,5-c]pyridin-2-yl]pyridin-2-yl}morpholine]: 50 to 200 nM.
The same measure for `Fc1cc(-n2c(-c3cnc(N4CCOCC4)nc3)nc3ccncc32)ccc1Cl` [Example 74, 4-{5-[3-(4-Chloro-3-fluorophenyl)-3H-imidazo[4,5-c]pyridin-2-yl]pyrimidin-2-yl}morpholine]: 200 to 1200 nM.
In the case of `Fc1ccc(-n2c(-c3cnc(N4CCOCC4)nc3)nc3ccncc32)nc1` [Example 76, 4-{5-[3-(5-Fluoropyridin-2-yl)-3H-imidazo[4,5-c]pyridin-2-yl]pyrimidin-2-yl}morpholine], the IC50 fell in the range of 50 to 200 nM.
In the case of `Cc1ccc(-n2c(-c3cnc(N4CCOCC4)nc3)nc3ccncc32)nc1` [Example 79, 4-{5-[3-(5-Methylpyridin-2-yl)-3H-imidazo[4,5-c]pyridin-2-yl]pyrimidin-2-yl}morpholine], the IC50 was less than 50 nM.
As for `Fc1cc(Cl)ccc1-n1c(-c2cnc(N3CCCC3)nc2)nc2ccncc21` [Example 83, 5-[3-(4-Chloro-2-fluorophenyl)-3H-imidazo[4,5-c]pyridin-2-yl]-2-(pyrrolidin-1-yl)pyrimidine], the concentration for half-maximal inhibition (IC50) is less than 50 nM.
For the compound `CN(C)c1ncc(-c2nc3ccncc3n2-c2ccc(Cl)cc2F)cn1` [Example 84, 5-[3-(4-Chloro-2-fluorophenyl)-3H-imidazo[4,5-c]pyridin-2-yl]-N,N-dimethylpyrimidin-2-amine], the concentration for half-maximal inhibition (IC50) was less than 50 nM.

The values are drawn from patent publication US20150258101A1 (Proximagen Limited, priority 2014, published 2015).
